Source: paper PMC10958501, “4-Oxypiperidine Ethers as Multiple Targeting Ligands at Histamine H3 Receptors and Cholinesterases” (ACS Chemical Neuroscience, 2024)
Where two headings read alike, the source gives them in different places.

Key:
[1] = design: method as in PMID 29671795; settings: in vivo; cited from earlier work
[2] = test system: H3R; design: method as in PMID 29671795, PMID 23957330; settings: cited from earlier work
[3] = target: T1, gpH3R (Cavia porcellus, UniProt Q9JI35); assay: Ex vivo gpH3R screening on isolated guinea pig ileum electrically stimulated to contraction
T1 construct: isolated guinea pig ileum electrically stimulated to contraction; from tissue; host or cells: distal ileum of male guinea pigs
T1 sequence (Q9JI35 whole entry): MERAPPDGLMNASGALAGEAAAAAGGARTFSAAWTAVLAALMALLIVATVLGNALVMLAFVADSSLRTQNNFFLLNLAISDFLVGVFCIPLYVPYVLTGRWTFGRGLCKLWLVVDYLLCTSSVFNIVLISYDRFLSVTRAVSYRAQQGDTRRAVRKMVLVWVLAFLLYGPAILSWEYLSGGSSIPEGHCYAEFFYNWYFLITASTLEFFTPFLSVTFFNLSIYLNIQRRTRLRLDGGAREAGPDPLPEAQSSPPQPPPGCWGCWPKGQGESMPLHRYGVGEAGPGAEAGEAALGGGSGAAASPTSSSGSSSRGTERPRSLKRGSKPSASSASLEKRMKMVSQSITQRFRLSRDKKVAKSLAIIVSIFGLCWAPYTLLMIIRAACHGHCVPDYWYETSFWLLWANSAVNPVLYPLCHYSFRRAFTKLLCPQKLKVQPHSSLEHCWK
Method: All newly synthesized compounds were evaluated ex vivo as H3R antagonists/inverse agonists on guinea pig ileum (gpH3R) stimulated electrically for contraction.[47]
The compounds were tested against H3R by an ex vivo assay using isolated guinea pig ileum electrically stimulated to contraction, according to Vollinga et al.[47] The pA2-values were calculated according to Arunlakshana and Schild.[59] The radioligand-displacement assay was performed in membrane fractions of HEK-293 cells stably expressing hH3R. Cell cultivation and membrane preparation were performed according to Kottke et al.[48] The Ki values were calculated from the IC50 values using the Cheng–Prusoff equation.[60] The statistical calculations were performed on −log(Ki). […] The inhibitory activities toward AChE and BuChE of novel ADS compounds were assessed in a spectrophotometric Ellman’s assay using electric eel AChE (eeAChE) and equine BuChE (eqBuChE).[57] Intracellular cAMP accumulation was measured with a homogeneous TR-FRET immunoassay using the LANCE Ultra cAMP kit (PerkinElmer) and HEK293 cells stably expressing the human histamine H3 receptor.[61] A more detailed description of the biological methods is presented in the Supporting Information.
3. Pharmacological assay results.
3.1. Ex vivo assay for histamine H 3R receptor antagonists on guinea pig ileum.
Male guinea pigs, weighing 300-400 g were euthanized by a blow to the neck. Following this, a 20-30 cm length of the distal ileum, apart from the terminal 5 cm was rapidly removed and […]
USA) (1·10 -6 mol/L). The intraluminal content was rinsed and the isolated intestine was cut into 1.5-2 cm segments. The preparations were mounted between two platinum electrodes […]
and indomethacin (3·10 -7 mol/L).
CO2 mixture and maintained at 37 °C under a constant load of 1.0 g (Hugo Sachs Hebel-Messvorsatz (Tl-2)/HF-modem; Hugo Sachs Elektronik, Hugstetten, Germany) connected to a pen recorder (Kipp & Zonen BD41, Delft, Holland). During an equilibration period of 60 min, the Krebs buffer was changed every 10 min. The preparations were then continuously stimulated at 15-20 V at a frequency of 0.1 Hz for a duration of 0.5 ms, with rectangular-wave electrical pulses (Grass Stimulator S-88; Grass Instruments Co., Quincy, Massachusetts, […]
USA). […] Five minutes before (R)-(−)-α- […]
methylhistamine (RAMH) (Toronto Research Chemicals Inc., North York, Canada), administration, pyrilamine (Sigma-Aldrich, St. Louis, MO, USA) (1·10-5 mol/L concentration in organ bath) was added. The first cumulative concentration-response curve was determined […]
second to fourth curve was measured against increasing antagonist concentration (incubation time 20 min). The pA2-values were calculated according to Arunlakshana and Schild 5.
Statistical analysis was carried out with the Student’s t-test. In all tests, a p<0.05 was […]
considered statistically significant. The pA2 values were compared with the affinity of thioperamide (Sigma-Aldrich, St. Louis, MO, USA). […]

[4] = target: T2, eeAChE (Electrophorus electricus, UniProt O42275); assay: biochemical; settings: for inhibition at 10 µM: read-out: eeAChE % inh. (10μM) ± SD; for IC50: read-out: eeAChE IC50 (μM) ± sem
T2 construct: purchased Sigma–Aldrich (Steinheim, Germany)
T2 sequence (O42275 24-633): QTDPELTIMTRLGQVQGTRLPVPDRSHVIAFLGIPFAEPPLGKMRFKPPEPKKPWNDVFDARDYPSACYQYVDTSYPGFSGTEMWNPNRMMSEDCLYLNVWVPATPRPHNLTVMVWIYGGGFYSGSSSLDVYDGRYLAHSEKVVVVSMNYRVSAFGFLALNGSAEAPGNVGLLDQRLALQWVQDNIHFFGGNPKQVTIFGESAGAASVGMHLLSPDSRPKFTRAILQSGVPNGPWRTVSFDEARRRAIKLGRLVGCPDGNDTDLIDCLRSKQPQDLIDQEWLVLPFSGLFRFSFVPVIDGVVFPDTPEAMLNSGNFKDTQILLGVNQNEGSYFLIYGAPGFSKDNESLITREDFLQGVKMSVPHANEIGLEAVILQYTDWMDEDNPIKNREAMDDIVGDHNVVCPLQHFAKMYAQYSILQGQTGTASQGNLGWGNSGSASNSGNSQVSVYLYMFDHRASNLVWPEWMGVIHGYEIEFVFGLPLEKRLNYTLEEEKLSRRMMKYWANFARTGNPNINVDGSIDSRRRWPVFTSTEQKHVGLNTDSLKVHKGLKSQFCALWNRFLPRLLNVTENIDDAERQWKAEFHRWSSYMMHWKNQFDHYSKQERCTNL

[5] = target: eqBuChE (Equus caballus, UniProt P81908); assay: biochemical; settings: for inhibition at 10 µM: read-out: eqBuChE % inh. (10 μM) ± SD; for IC50: read-out: eqBuChE IC50 [μM] ± sem
Sequence of eqBuChE (P81908 whole entry): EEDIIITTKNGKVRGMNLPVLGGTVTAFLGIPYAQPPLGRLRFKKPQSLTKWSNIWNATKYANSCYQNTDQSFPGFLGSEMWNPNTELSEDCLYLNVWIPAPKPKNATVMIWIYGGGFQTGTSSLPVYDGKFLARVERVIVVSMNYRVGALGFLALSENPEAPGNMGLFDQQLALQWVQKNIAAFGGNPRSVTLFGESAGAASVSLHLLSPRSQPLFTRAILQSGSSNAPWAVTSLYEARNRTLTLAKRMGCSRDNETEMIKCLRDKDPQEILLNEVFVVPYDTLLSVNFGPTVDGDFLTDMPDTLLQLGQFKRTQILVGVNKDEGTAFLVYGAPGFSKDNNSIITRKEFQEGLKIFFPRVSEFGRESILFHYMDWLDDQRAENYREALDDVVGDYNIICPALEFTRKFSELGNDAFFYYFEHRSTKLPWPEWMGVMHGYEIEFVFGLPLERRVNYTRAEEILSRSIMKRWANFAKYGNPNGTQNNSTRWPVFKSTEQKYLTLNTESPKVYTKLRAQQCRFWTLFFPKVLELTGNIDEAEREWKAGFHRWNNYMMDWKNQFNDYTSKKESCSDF

[6] = target: T3, hH3R (Homo sapiens, UniProt Q9Y5N1); assay: hH3R radioligand displacement assay in membrane fractions of HEK-293 cells; format: binding; settings: [3H]Nα-methylhistamine displacement, HEK-293 membranes; 95% CI in brackets
T3 construct: expressed in transfected cells; membrane fractions
T3 sequence (Q9Y5N1 whole entry): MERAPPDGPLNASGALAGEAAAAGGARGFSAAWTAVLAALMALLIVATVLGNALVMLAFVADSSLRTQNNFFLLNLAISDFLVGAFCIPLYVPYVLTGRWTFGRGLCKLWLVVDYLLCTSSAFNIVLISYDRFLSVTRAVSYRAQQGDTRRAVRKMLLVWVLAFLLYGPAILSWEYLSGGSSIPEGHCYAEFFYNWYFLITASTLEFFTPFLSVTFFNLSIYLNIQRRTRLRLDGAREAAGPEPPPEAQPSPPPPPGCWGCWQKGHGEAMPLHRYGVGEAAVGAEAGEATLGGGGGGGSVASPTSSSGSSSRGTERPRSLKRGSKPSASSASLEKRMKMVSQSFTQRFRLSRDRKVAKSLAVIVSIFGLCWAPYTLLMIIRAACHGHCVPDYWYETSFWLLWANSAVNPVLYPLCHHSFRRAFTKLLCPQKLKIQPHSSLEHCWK
Method: The compounds were tested against H3R by an ex vivo assay using isolated guinea pig ileum electrically stimulated to contraction, according to Vollinga et al.[47] The pA2-values were calculated according to Arunlakshana and Schild.[59] The radioligand-displacement assay was performed in membrane fractions of HEK-293 cells stably expressing hH3R. Cell cultivation and membrane preparation were performed according to Kottke et al.[48] The Ki values were calculated from the IC50 values using the Cheng–Prusoff equation.[60] The statistical calculations were performed on −log(Ki). The mean values and 95% confidence intervals were transformed to nanomolar concentrations. The inhibitory activities toward AChE and BuChE of novel ADS compounds were assessed in a spectrophotometric Ellman’s assay using electric eel AChE (eeAChE) and equine BuChE (eqBuChE).[57] Intracellular cAMP accumulation was measured with a homogeneous TR-FRET immunoassay using the LANCE Ultra cAMP kit (PerkinElmer) and HEK293 cells stably expressing the human histamine H3 receptor.[61] A more detailed description of the biological methods is presented in the Supporting Information. […]
considered statistically significant. The pA2 values were compared with the affinity of thioperamide (Sigma-Aldrich, St. Louis, MO, USA).
3.2. hH 3R radioligand displacement binding assay.
The radioligand displacement binding assay was performed in membrane fractions of HEK-293 cells stably expressing hH3R. Cell cultivation and membrane preparation was performed according to Kottke et al 6. For the radioligand displacement assay, radioactively labeled […]
assay volume was set to 200 µL. The compounds were tested in several appropriate concentrations between 100 µM and 0.1 nM. Pipetting was partly done by Freedom Evo® (Tecan). Pitolisant was used to determine non-specific binding at a concentration of 10 µM.
The membrane fraction (20 µg/well), test compounds, and radiolabeled ligand were incubated for 90 minutes at 25 °C while shaking. The bound radioligand was separated from the free radioligand by filtration through GF/B filters pre-treated with 0.3 % (m/v) polyethyleneimine using a cell harvester. Radioactivity was determined by liquid scintillation counting using a MicroBeta® Trilux (Perkin Elmer). The data was obtained in duplicates in at least three independent experiments. Non-specific binding was subtracted from the raw data to calculate specific binding values. The evaluation was performed with GraphPad Prism 6.1 (San Diego, CA, USA) using non-linear regression (one-site competition with a logarithmic scale). The Ki values were calculated from the IC50 values using the Cheng-Prusoff equation 7. The statistical calculations were performed on –log(Ki). […]

[7] = test system: AChE; settings: cited from earlier work
[8] = test system: BuChE; design: method as in PMID 16599255; settings: cited from earlier work
[9] = target: T3, hH3R; settings: cited from earlier work
[10] = isolated guinea pig ileum, against (R)-(−)-α-methylhistamine, mean of at least three experiments, read-out: gpH3R pA2 ± sem (converted)

SMILES	Kb [3] [nM]	inhibition at 10 µM [4] [%]	inhibition at 10 µM [5] [%]	IC50 [5] [µM]	other results
CCCN(C)CCCCCOC1CCN(Cc2cc3ccccc3o2)CC1 [ADS003, 5-((1-(benzofuran-2-ylmethyl)piperidin-4-yl)oxy)-N-methyl-N-propylpentan-1-amine]	–	–	–	–	blood–brain barrier crossing [1]: ability to cross the blood–brain barrier; pA2 [2]: 8.47
CCCN(C)Cc1ccccc1COC1CCN(Cc2ccccc2)CC1 [ADS027, N-(2-(((1-Benzylpiperidin-4-yl)oxy)methyl)benzyl)-N-methylpropan-1-amine]	151	4.8 ± 0.3	64.6 ± 0.9	4.31 ± 0.202	–
CCCN(C)Cc1ccc(-c2ccc(COC3CCN(Cc4cc5ccccc5o4)CC3)cc2)cc1 [ADS030, N-((4′-(((1-(Benzofuran-2-ylmethyl)piperidin-4-yl)oxy)methyl)-[1,1′-biphenyl]-4-yl)methyl)-N-methylpropan-1-amine]	257	31.2 ± 0.5	83.1 ± 0.4	1.75 ± 0.077	–
CCCN(C)Cc1ccc(COC2CCN(Cc3ccccc3)CC2)cc1 [ADS022, N-(4-(((1-Benzylpiperidin-4-yl)oxy)methyl)benzyl)-N-methylpropan-1-amine]	38	61.6 ± 2.8	49.4 ± 1.9	–	Ki [6]: 77.1 nM; IC50 [4]: 6.89 ± 0.271 µM
CCCN(C)Cc1cccc(COC2CCN(Cc3ccccc3)CC2)c1 [ADS025, N-(3-(((1-Benzylpiperidin-4-yl)oxy)methyl)benzyl)-N-methylpropan-1-amine]	129	53.7 ± 1.9	63.9 ± 1.7	6.05 ± 0.16	IC50 [4]: 9.94 ± 0.64 µM
CCCN(C)Cc1ccc2cc(COC3CCN(Cc4cc5ccccc5o4)CC3)ccc2c1 [ADS032, N-((6-(((1-(Benzofuran-2-ylmethyl)piperidin-4-yl)oxy)methyl)naphthalen-2-yl)methyl)-N-methylpropan-1-amine]	87.1	28.1 ± 3.9	90.3 ± 0.1	1.64 ± 0.074	Ki [6]: 44.1 nM
CCCN(C)Cc1ccc(-c2ccc(COC3CCN(Cc4ccccc4)CC3)cc2)cc1 [ADS029, N-((4′-(((1-Benzylpiperidin-4-yl)oxy)methyl)-[1,1′-biphenyl]-4-yl)methyl)-N-methylpropan-1-amine]	61.7	69 ± 0.5	90.8 ± 0.3	1.4 ± 0.055	IC50 [4]: 3.71 ± 0.134 µM
CCCN(C)c1ccc(OC2CCN(Cc3ccccc3)CC2)cc1 [ADS021, 4-((1-Benzylpiperidin-4-yl)oxy)-N-methyl-N-propylaniline]	> 100000	33.4 ± 1.1	95.88 ± 0.2	0.559 ± 0.125	–
CCCN(C)Cc1ccc(COC2CCN(Cc3cc4ccccc4o3)CC2)cc1 [ADS024, N-(4-(((1-(Benzofuran-2-ylmethyl)piperidin-4-yl)oxy)methyl)benzyl)-N-methylpropan-1-amine]	26.9	36.2 ± 3.6	32.2 ± 2.6	–	Ki [6]: 144 nM
CCCN(C)CCCCCOC1CCN(Cc2ccccc2)CC1 [ADS009, 5-((1-benzylpiperidin-4-yl)oxy)-N-methyl-N-propylpentan-1-amine]	–	–	–	–	pA2 [2]: 7.79
c1ccc2c(NCc3ccc(CCCN4CCCCC4)cc3)c3c(nc2c1)CCCC3 [III]	–	–	–	–	IC50 [7]: 2.6 nM; IC50 [8]: 8.8 nM; Ki [9]: 0.3 nM
CCCN(C)Cc1cccc(COC2CCN(Cc3cc4ccccc4o3)CC2)c1 [ADS026, N-(3-(((1-(Benzofuran-2-ylmethyl)piperidin-4-yl)oxy)methyl)benzyl)-N-methylpropan-1-amine]	–	5.5 ± 0.6	55.9 ± 2	–	Kb [3, 10]: 93.3 nM
S=C(NC1CCCCC1)N1CCC(c2cnc[nH]2)CC1 [Thioperamide]	–	–	–	–	pA2 [2]: 8.67
CCCN(C)Cc1ccccc1COC1CCN(Cc2cc3ccccc3o2)CC1 [ADS028, N-(2-(((1-(Benzofuran-2-ylmethyl)piperidin-4-yl)oxy)methyl)benzyl)-N-methylpropan-1-amine]	126	2.3 ± 0.3	79.6 ± 0.4	2.65 ± 0.055	–
CCCN(C)c1ccc(OC2CCN(Cc3cc4ccccc4o3)CC2)cc1 [ADS023, 4-((1-(Benzofuran-2-ylmethyl)piperidin-4-yl)oxy)-N-methyl-N-propylaniline]	–	40.3 ± 2.8	43.2 ± 2.1	–	Kb [3, 10]: > 100000 nM
c1cc(-c2ccc(CN3CCCCC3)cc2)ccc1CCN1CCCCC1 [I]	–	–	–	–	IC50 [7]: 1100 nM
